Structures are written as SMILES.

Our source for the RP-LC retention time values is the METLIN SMRT retention time set (Domingo-Almenara et al. 2019).

This data set is described as follows: gradient 5% acetonitrile 3 min, to 50% in 2 min, to 85% in 15 min, held 3 min, 100 µL/min. As to conditions: column: Zorbax Extend-C18 2.1 x 50 mm; eluents: water / acetonitrile, 0.1% formic acid. A digest of the protocol:
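Over 3 months, pure standards in mixtures of ~100 molecules were run by HPLC coupled to a quadrupole time-of-flight mass spectrometer in positive and negative ionization mode. The column was a Zorbax Extend-C18 (2.1 × 50 mm, 1.8 μm) at 100 μL/min, eluted with water and acetonitrile each holding 0.1% formic acid, with 40 μL dead and 900 μL dwell volumes. Retention time was determined from adduct peaks chosen by software and checked manually.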
Consider `O=C(Nc1ccc(Cl)c([N+](=O)[O-])c1)Nc1nc2ccccc2s1`, for which the RP-LC retention time turned out to be 1050 s.
Under `COc1ccc2cc(C(=O)N3CCCN(c4cc(=O)n(C)c(=O)n4C)CC3)[nH]c2c1` stands 688 s.
`CCC(C)NC(=O)c1ccn[nH]1` (centres undefined) yielded an RP-LC retention time of 593 s.
For the compound `Cc1[nH]c(C(=O)N2CCCC(C(=O)NCc3cccc(Cl)c3)C2)c(C)c1C(=O)OC(C)C` (centres undefined), the RP-LC retention time amounted to 885 s.
To `CN(C)CCNC(=O)COc1ccccc1-c1nnc(-c2ccccc2)o1` belongs 659 s.
To `COc1ccc(OC)c(Nc2c(C(=O)N3CCCC3)cnc3nc(C)ccc23)c1` belongs 601 s; to `CCCN1C(=O)COc2ccc(-c3csc(NC(=O)c4c(OC)cccc4OC)n3)cc21`, 944 s; to `O=C(NCCCN1CCCCC1)c1cc2n(n1)CCCN(Cc1ccccc1)C2=O`, 569 s.
`O=C(c1ccco1)N1CCN(C(=O)C2CCCN(c3ncnc4c3nc3n4CCCCC3)C2)CC1` (centres undefined) returned an RP-LC retention time of 657 s.
To `Cc1nn2c(S(=O)(=O)NCc3cccs3)c(C)nc2s1` belongs 704 s.
Take `Cc1cc(C2CCCN2C(=O)c2c(-c3ccccc3Cl)noc2C)on1` (centres undefined): the RP-LC retention time came out at 816 s.
For `C=CCn1nc(-c2nc(-c3cccc(Cl)c3)no2)ccc1=O`, the RP-LC retention time stood at 1060 s.
In the case of `Cc1cc(C)c(C)c(S(=O)(=O)Nc2ccc3c(c2)OCO3)c1C`, the RP-LC retention time came to 915 s.
For the compound `COc1ccc(C2=C(C)C(N3CCN(c4ccccn4)CC3)=NS2(=O)=O)cc1`, the RP-LC retention time amounted to 620 s.
In the case of `COc1ccc(Cl)cc1NS(=O)(=O)c1cc(-c2nc(C(C)(C)C)cs2)cs1`, the RP-LC retention time was determined as 1350 s.
In turn, `O=C(C1COc2ccccc2O1)N1CCN(c2cc(-c3cccs3)[nH]n2)CC1` (centres undefined) yielded an RP-LC retention time of 839 s.
`COc1ccccc1NC(=O)N1CCN(Cc2nc3ccc(Cl)cc3o2)CC1` had an RP-LC retention time of 731 s.
Under `CCc1ccc(CNC(=O)Cn2ccc3c(=O)n(C)c(=O)n(C)c32)cc1` stands 716 s; under `CCN1C(=O)c2ccccc2Oc2ccc(C(=O)NC3CCCCCC3)cc21`, 1050 s; under `COCC(=O)NC1CCC12CCN(C(=O)CC1CCCCC1)CC2` (centres undefined), 778 s.
`COc1ccc(S(=O)(=O)N2C[C@@H](F)C[C@H]2C(=O)N2CCOCC2)cc1OC` yielded an RP-LC retention time of 640 s.
Under `Cc1ccc(N2CC(c3noc(-c4cc(F)cc(F)c4)n3)CC2=O)cc1` (centres undefined) stands 1060 s; under `C=CCn1c(=O)c2ccccc2n(Cc2nc(-c3cccc(Cl)c3)no2)c1=O`, 1110 s; under `CCCN1C(=O)c2cc(S(=O)(=O)N3CCCCC3)ccc2Oc2cccnc21`, 1110 s.
For `Cc1cccc(C)c1-n1nnc(C(=O)NCC2CCCO2)c1C` (centres undefined), the RP-LC retention time came to 754 s.
As for `CCc1nc2c(NC(=O)NCc3ccccc3)cccn2n1`, the RP-LC retention time is 778 s.
To `O=C(NCc1ccco1)C(=O)NCC1OCCN1C(=O)c1ccc2c(c1)OCO2` (centres undefined) belongs 653 s.
As for `Cc1ccnc(N2CCC(C(=O)NC(C)c3ccc4c(c3)OCCO4)CC2)n1` (centres undefined), the RP-LC retention time came to 672 s.
`CCn1c(=O)c(C(=O)N2CCCC2)nc2ccccc21` yielded an RP-LC retention time of 665 s.
Under `CCS(=O)(=O)Nc1ccc(Nc2c3ccccc3nc3ccccc23)c(OC)c1` stands 649 s; under `COc1cccc(CNC2=NCCNC23CCN(S(=O)(=O)c2ccc(Cl)cc2)CC3)c1`, 738 s.
The compound `O=C(NCc1cccs1)NCC1CN(c2cccc(Cl)c2)C(=O)O1` (centres undefined) came in with an RP-LC retention time of 731 s.
To `COCCNC(=O)C1CCCN(c2nccc(C)n2)C1` (centres undefined) belongs 584 s; to `COc1ccccc1-c1nnc(-c2ccc(OC)c(S(=O)(=O)N3CCCCC3)c2)o1`, 937 s.
